{
  "source": "ChEMBL document CHEMBL2331215",
  "about": "“Discovery of novel N-substituted oxindoles as selective m1 and m4 muscarinic acetylcholine receptors partial agonists” (ACS Med Chem Lett, 2013)",
  "key": {"[1]": {"biological_target": "Muscarinic acetylcholine receptor M3 (Homo sapiens) (UniProt P20309)", "sequence (P20309 whole entry, looked up)": "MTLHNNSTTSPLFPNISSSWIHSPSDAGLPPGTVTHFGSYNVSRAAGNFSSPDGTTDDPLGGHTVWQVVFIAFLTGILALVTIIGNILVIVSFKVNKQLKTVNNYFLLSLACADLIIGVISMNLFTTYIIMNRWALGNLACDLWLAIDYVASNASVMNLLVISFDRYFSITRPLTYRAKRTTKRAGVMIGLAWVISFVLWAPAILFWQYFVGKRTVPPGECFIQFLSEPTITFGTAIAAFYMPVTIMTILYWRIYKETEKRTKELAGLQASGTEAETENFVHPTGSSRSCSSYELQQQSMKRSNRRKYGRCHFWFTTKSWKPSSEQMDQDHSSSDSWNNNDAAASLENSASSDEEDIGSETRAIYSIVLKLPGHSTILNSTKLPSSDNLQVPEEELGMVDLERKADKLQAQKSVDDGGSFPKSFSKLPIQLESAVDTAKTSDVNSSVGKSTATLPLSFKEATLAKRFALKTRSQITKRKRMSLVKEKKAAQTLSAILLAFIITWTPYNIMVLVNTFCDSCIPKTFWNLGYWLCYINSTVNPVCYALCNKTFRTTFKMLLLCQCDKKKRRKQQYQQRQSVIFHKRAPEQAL", "assay": "Partial agonist activity at human M3 receptor in CHO cells assessed as calcium mobilization at 30 uM after 60 mins by FLIPR assay", "type": "functional, cell-based"}, "Cynomolgus monkey [2]": {"tested_on": "Cynomolgus monkey", "assay": "Induction of drowsiness in sc dosed cynomolgus monkey", "type": "organism-based, Macaca fascicularis", "conditions": "in vivo"}, "Cynomolgus monkey [3]": {"tested_on": "Cynomolgus monkey", "assay": "Cardiotoxicity in telemetered cynomolgus monkey assessed as increase in mean blood pressure at 1.5 to 6 mg/kg, sc measured after 1 to 4 hrs by telemetry method", "type": "toxicity, organism-based, Macaca fascicularis", "parameters": "route subcutaneous", "conditions": "in vivo"}, "Rattus norvegicus [4]": {"tested_on": "Rattus norvegicus", "assay": "Antipsychotic activity in Sprague-Dawley rats assessed as reversal of methamphetamine-induced hyperlocomotion at 0.6 mg/kg, sc administered 30 mins prior to methamphetamine injection measured for 80 mins from 10 mins after methamphetamine challenge in presence of 0.6 mg/kg, po risperidone", "type": "functional, organism-based"}, "Cynomolgus monkey [5]": {"tested_on": "Cynomolgus monkey", "assay": "Induction of vomiting in sc dosed cynomolgus monkey", "type": "organism-based, Macaca fascicularis", "conditions": "in vivo"}, "[6]": {"biological_target": "T1, Muscarinic acetylcholine receptor M1 (Homo sapiens) (UniProt P11229)", "T1 sequence (whole entry)": "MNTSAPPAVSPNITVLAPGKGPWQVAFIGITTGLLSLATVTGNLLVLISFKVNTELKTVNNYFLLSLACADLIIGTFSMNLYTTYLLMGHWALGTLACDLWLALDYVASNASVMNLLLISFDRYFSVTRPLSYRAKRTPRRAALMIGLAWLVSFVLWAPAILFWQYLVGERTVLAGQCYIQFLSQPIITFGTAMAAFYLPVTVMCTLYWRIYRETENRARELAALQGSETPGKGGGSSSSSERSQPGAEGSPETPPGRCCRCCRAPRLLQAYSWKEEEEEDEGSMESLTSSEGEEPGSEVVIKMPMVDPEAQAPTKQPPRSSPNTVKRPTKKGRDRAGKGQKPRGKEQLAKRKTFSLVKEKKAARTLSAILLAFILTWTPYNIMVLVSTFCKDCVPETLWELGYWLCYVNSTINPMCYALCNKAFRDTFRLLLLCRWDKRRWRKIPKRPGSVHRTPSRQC", "assay": "Partial agonist activity at human M1 receptor in CHO cells assessed as calcium mobilization at 3 uM after 60 mins by FLIPR assay", "type": "functional, cell-based"}, "Rattus norvegicus [7]": {"tested_on": "Rattus norvegicus", "assay": "Antipsychotic activity in Sprague-Dawley rats assessed as inhibition of apomorphine-induced prepulse inhibition deficit at 1 to 10 mg/kg, sc administered 15 mins prior to apomorphine injection measured after 15 mins", "type": "functional, organism-based"}, "Cynomolgus monkey [8]": {"tested_on": "Cynomolgus monkey", "assay": "Induction of miosis in sc dosed cynomolgus monkey", "type": "organism-based, Macaca fascicularis", "conditions": "in vivo"}, "Cynomolgus monkey [9]": {"tested_on": "Cynomolgus monkey", "assay": "Cardiotoxicity in telemetered cynomolgus monkey assessed as prolongation of QRS duration at 1.5 to 6 mg/kg, sc measured after 1 to 4 hrs by telemetry method", "type": "toxicity, organism-based, Macaca fascicularis", "parameters": "route subcutaneous", "conditions": "in vivo"}, "[10]": {"biological_target": "T2, Muscarinic acetylcholine receptor M5 (Homo sapiens) (UniProt P08912)", "T2 sequence (whole entry)": "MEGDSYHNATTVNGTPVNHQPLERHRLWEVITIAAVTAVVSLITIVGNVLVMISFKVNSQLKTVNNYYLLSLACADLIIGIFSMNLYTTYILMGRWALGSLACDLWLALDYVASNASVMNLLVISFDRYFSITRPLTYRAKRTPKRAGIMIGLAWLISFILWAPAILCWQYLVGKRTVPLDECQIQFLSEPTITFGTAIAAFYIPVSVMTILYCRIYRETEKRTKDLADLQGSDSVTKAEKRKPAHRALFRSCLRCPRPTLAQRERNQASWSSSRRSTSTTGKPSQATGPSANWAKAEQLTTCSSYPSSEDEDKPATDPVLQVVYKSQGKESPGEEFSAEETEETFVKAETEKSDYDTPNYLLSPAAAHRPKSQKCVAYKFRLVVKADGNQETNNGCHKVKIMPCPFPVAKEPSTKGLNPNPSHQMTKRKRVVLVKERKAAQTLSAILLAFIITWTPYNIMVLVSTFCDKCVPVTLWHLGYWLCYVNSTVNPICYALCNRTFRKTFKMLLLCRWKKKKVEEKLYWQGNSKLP", "assay": "Partial agonist activity at human M5 receptor in CHO cells assessed as calcium mobilization at 30 uM after 60 mins by FLIPR assay", "type": "functional, cell-based"}, "Mus musculus": {"tested_on": "Mus musculus", "assay": "Induction of salivation in ddY mouse at 10 to 30 mg/kg, sc measured for 30 mins after drug administration", "type": "organism-based", "parameters": "dose 10-30 mg/kg, route subcutaneous", "conditions": "in vivo, 0.5 h"}, "Rattus norvegicus [11]": {"tested_on": "Rattus norvegicus", "assay": "Induction of catalepsy in Sprague-Dawley rats at 10 to 30 mg/kg, sc measured after 60 mins", "type": "organism-based", "parameters": "dose 10-30 mg/kg, route subcutaneous", "conditions": "in vivo, 1 h"}},
  "note": "Calls of active or inactive are those of the source. The rule behind the calls is not given here.",
  "data": [
    {"smiles": "CCOC(=O)N1[C@@H]2CC[C@H]1C[C@H](CN1CC[C@H](N3C(=O)Cc4ccccc43)C1)C2", "values": [
      {"measurement": "Activity", "setting": "[1]", "value": "inactive"},
      {"measurement": "Activity", "setting": "Cynomolgus monkey [2]", "value": "Non-toxic"},
      {"measurement": "Activity", "setting": "Cynomolgus monkey [3]", "value": "Non-toxic"},
      {"measurement": "inhibition", "setting": "Rattus norvegicus [4]", "value": "Active"},
      {"measurement": "Activity", "setting": "Cynomolgus monkey [5]", "value": "Non-toxic"},
      {"measurement": "Activity", "setting": "[6]", "value": 63, "unit": "%"},
      {"measurement": "inhibition", "setting": "Rattus norvegicus [7]", "value": "Active"},
      {"measurement": "Activity", "setting": "Cynomolgus monkey [8]", "value": "Toxic"},
      {"measurement": "Activity", "setting": "Cynomolgus monkey [9]", "value": "Non-toxic"},
      {"measurement": "Activity", "setting": "[10]", "value": "inactive"},
      {"measurement": "Activity", "setting": "Mus musculus", "value": "Non-toxic"},
      {"measurement": "Activity", "setting": "Rattus norvegicus [11]", "value": "Non-toxic"}
    ]}
  ]
}
